Assay results as given in patent publication US20250281740A1, “Electroporation process for delivering a composition comprising at least one peptide of molecular weight ranging from 500 Da to 20 kDa” (L'OREAL, priority 2021, published 2025).

Experiment: penetration into a human skin sample, topical application versus application combined with electroporation, amount determined by ELISA
Type: in vitro ADME
Text: To test the effect of the device, a sample of human skin is peripherally attached to a support, with the counterelectrode of the electroporation device placed between the inner face of the skin and the support. The electrode of the electroporation device is placed in contact with the outer face of the skin sample. The case of the electroporation device is immobilized by a support. The support is placed on an orbital shaker, so that the electrode moves over the surface of the skin. The device used in this example is a BTX Gemini X2 programmable signal generator (Harvard Instruments). The electroporation treatment time is about 1 minute. It consists of 81 pulses of 10 ms each, with rest periods of 500 ms between the pulses. The polarity chosen is negative, i.e. the electrode is at a negative potential relative to the counterelectrode. On the skin, the voltage between the electrode and the counterelectrode is about 40 V. 50 μl of […] are applied before the device is placed in position (corresponding to 100 μl/cm^2). […] Results The skin is removed from the experimental system and then analysed to determine the amount of N-acetyl-3-trifluoromethyl-phenyl-(valine-glycine) which has penetrated, via an ELISA technique.

amount that has penetrated into the skin (electroporation process (81 pulses of 10 ms, 500 ms rest, about 40 V, negative polarity) compared with topical application of an identical composition, 1% formulations 1 and 2, 100 μl/cm^2, FIG. 4): much higher
amount that has penetrated into the skin (FIG. 5) (electroporation process compared with topical application of an identical composition, FIG. 5): log higher
SMILES: CC(=O)N(c1cccc(C(F)(F)F)c1)C(C(=O)NCC(=O)O)C(C)C (centres unmarked) [N-acetyl-3-trifluoromethyl-phenyl-(valine-glycine)]
